These results are taken from patent publication US11261478B2, “Thermal stable luciferase with improved resistance to inhibition by luciferin break-down products” (priority 2016, dated 2022).

Assay [1] addresses T1, UltraGlo luciferase (parent, ULTRA GLO luciferase, SEQ ID NO: 3) (Photuris pensylvanica, UniProt Q27757, A101V/A17E/A262V/C221A/D34A/D353K/D394P/E2A/F294L/F367L/F500Y/G84S/H14Y/H220I/I125V/I173S/K413N/L193S/L91V/N183Y/N412D/N499D/P295A/R357K/S105N/S204P/S36P/S399G/S502A/T234S/T249M/T354G/T386P/V145I/V194I/V203L/V300C/V356A/Y144S/Y27D).
T1 construct: full length, 552 aa
Kind of assay: Competitive inhibition of F-luciferin luminescence by dehydro-F-luciferin, purified UltraGlo luciferase. Type of assay: biochemical. To be noted: F-luciferin 1 mM, ATP 0.5 mM final, 3 minutes at room temperature, Michaelis-Menten competitive inhibition model. Here is the method: (§1) To explore the inhibition of F-luciferin luminescence by dehydro-F-luciferin by combination mutants, the mutant Triple+300 (H244W, T344A, I396K, C300G) was screened for its resistance to dehydroluciferin.
(§2) Purified UltraGlo and Triple+300 luciferase enzymes were serially diluted from stocks in 1×TBS+1.0% Prionex to a concentration of 0.01 mg/ml. Racemic F-luciferin was serially diluted from stocks in water to 22 mM. Racemic dehydro-F-luciferin was serially diluted from stocks in water to 10 mM, and then 8 consecutive 4-fold serial dilutions were carried out for each concentration tested. ATP was diluted to 1 mM in BrightGlo Buffer or Detection Reagent buffer (depending on final reaction destination) to 1 mM concentration.
(§3) The following components were then combined into wells of a flat bottom, white, 96-well plate: 50 ul diluted ATP in buffer (BrightGlo or Detection Reagent; 0.5 mM final concentration), 50 ul diluted luciferase enzyme ([…] final concentration), 5 ul diluted F-luciferin (1 mM final concentration), and 4 ul diluted dehydro-F-luciferin ([…] final concentration)
(§4) Reactions were incubated for 3 minutes at room temperature, and luminescence was measured using a GloMax Multi+plate reader. Data were analyzed in GraphPad Prism 7 using nonlinear regression by fitting the data to a Michaelis-Menten competitive inhibition enzyme kinetic model.

The target in assay [2] is UltraGlo luciferase variant Triple+300 (H244W, T344A, I396K, C300G), SEQ ID NO: 11 (Photuris pensylvanica, UniProt Q27757, A101V/A17E/A262V/C221A/D34A/D353K/D394P/E2A/F294L/F367L/F500Y/G84S/H14Y/H220I/H244W/I125V/I173S/I396K/K413N/L193S/L91V/N183Y/N412D/N499D/P295A/R357K/S105N/S204P/S36P/S399G/S502A/T234S/T249M/T344A/T354G/T386P/V145I/V194I/V203L/V300G/V356A/Y144S/Y27D). Nature of the assay: Competitive inhibition of F-luciferin luminescence by dehydro-F-luciferin, purified Triple+300 luciferase mutant. The class given is biochemical. Particulars: F-luciferin 1 mM, ATP 0.5 mM final, 3 minutes at room temperature, Michaelis-Menten competitive inhibition model. Here is the method: as §1, §2, §3, §4
Chain of UltraGlo luciferase variant Triple+300 (H244W, T344A, I396K, C300G), SEQ ID NO: 11 (Q27757 other isoform, or with tags, fused parts or gaps with the stated changes): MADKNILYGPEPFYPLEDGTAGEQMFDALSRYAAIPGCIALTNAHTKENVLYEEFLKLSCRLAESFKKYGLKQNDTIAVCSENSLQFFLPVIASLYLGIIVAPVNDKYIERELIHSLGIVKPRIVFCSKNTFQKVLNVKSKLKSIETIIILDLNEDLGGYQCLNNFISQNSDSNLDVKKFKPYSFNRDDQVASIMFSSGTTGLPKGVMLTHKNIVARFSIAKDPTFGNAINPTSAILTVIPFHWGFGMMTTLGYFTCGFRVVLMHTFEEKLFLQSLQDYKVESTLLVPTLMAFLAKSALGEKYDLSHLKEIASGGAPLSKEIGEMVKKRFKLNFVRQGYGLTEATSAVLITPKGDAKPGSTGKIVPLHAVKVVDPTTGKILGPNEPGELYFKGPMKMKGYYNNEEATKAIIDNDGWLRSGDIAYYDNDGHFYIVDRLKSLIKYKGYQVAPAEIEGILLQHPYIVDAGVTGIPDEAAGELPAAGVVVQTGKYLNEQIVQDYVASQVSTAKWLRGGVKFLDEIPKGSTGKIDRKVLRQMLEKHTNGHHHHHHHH

T1 sequence (Q27757 other isoform, or with tags, fused parts or gaps with the stated changes): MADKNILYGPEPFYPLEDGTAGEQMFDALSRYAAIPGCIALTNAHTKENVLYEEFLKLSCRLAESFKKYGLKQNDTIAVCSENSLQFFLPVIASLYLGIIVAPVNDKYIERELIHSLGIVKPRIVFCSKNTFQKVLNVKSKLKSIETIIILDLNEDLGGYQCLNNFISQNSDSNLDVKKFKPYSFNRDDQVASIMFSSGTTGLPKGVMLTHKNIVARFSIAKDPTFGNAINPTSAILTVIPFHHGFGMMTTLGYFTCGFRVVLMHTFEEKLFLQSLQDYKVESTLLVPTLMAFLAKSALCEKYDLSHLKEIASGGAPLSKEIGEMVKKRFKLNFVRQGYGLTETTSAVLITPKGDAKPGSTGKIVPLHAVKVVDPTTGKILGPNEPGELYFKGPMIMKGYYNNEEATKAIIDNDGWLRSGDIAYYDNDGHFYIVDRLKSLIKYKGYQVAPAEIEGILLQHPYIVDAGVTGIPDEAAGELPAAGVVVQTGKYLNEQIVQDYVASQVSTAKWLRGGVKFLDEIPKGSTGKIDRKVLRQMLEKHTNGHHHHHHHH

On to `O=C(O)c1csc(-c2nc3cc(F)c(O)cc3s2)n1` [dehydro-F-luciferin], for which the Ki in assay [1] (BrightGlo buffer) is 39.9 nM; in assay [1] (Detection Reagent buffer), 420 nM; in assay [2] (BrightGlo buffer), 71.8 nM; in assay [2] (Detection Reagent buffer), 563 nM.

What is called Ki is a dissociation constant, usually derived from enzyme kinetics or from competition with a known ligand.
